Measurements as given in US5252463A, “Clipsin, a chymotrypsin-like protease and method of using same” (The Du Pont Merck Pharmaceutical Company, priority 1990, dated 1993).
Read-outs that look alike come from different tables or passages of the source. Starred links: 1 amine or outer side, 2 acyl side, 3 side chain; linkers in the order of their positions; H or OH if unused. Residues, ends and D or L forms follow the SMILES beside them. *: point of attachment. pNA = O=[N+]([O-])c1ccc(N*)cc1; Suc = O=C(CCC(=O)[*:2])[*:1]; MeOSuc = COC(=O)CCC(=O)*

Legend:
clipsin [1] = target: T1, clipsin (Rattus norvegicus, UniProt P09650); assay: Enzymography: clipsin activity in 125I-gelatin-containing polyacrylamide gels; format: biochemical; parameters: Mr 25,000 band in gelatin enzymography; details: for Inhibition of clipsin by peptide boronic acids (in words): 10 μM final concentrations
T1 sequence (P09650 21-260): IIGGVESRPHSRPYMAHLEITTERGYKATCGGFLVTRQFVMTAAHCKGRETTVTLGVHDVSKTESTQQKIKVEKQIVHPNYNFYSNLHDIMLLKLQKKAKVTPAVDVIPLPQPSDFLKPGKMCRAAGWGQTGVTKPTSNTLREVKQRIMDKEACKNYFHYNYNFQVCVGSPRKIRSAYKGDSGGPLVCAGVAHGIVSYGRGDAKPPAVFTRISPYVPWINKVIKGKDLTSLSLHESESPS

bovine chymotrypsin [2] = target: T2, bovine chymotrypsin (Bos taurus, UniProt P00766); assay: Hydrolysis kinetics of tetrapeptide p-nitroanilide substrates by chymotrypsin; format: biochemical; details: ratio chymotrypsin/clipsin for the same substrate
T2 construct: mature chains cut from chymotrypsinogen A
Source text: (§1) Correlation coefficients were greater than 0.99.

[3] = target: T3, human leukocyte cathepsin G (Homo sapiens, UniProt P08311); assay: Hydrolysis kinetics of tetrapeptide p-nitroanilide substrates by cathepsin G; format: biochemical; details: pH 7.5, 50° C.; for Km: 10% dimethyl sulfoxide; for kcat: α-1-AChy-titrated enzyme concentration
T3 sequence (P08311 21-244): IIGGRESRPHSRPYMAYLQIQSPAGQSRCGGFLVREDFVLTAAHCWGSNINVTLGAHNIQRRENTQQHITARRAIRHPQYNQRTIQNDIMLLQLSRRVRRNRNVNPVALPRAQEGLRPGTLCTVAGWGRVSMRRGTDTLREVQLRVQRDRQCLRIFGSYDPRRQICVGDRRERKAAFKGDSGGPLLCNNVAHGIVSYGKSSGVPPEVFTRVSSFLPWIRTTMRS
Source text: as §1

clipsin [4] = target: T1, clipsin; assay: In vitro chromogenic substrate assay: inhibition of Suc-Ala-Ala-Pro-Phe-p-nitroanilide hydrolysis by Mg2+ extract; format: biochemical; parameters: Forebrains from 5-day-old rats were stripped of meninges and homogenized; from tissue; host or cells: forebrain of 5-day-old rats, membrane-associated, 1M MgCl2 extract (partially enriched); details: for remaining activity at 10 µM: read-out: Relative Clipsin Activity (ΔOD as a percentage of the control value)
[5] = system: major Coomassie Blue-detectable proteins from rat cortical membranes; assay: Breakdown of rat cortical membrane proteins by Mg2+ extract, Coomassie Blue-stained gels; format: biochemical; details: inhibitor included in the incubation
Method: (§2) Mg^2+ extract at 60% (about 4.2 nM clipsin final) was incubated with a crude membrane fraction from adult rat cortex (2.8 mg/mL protein final; Siman et al., (1989) J. Neurosci. 9, 1579-1590). Proteolysis reactions were performed at 37° C. for 1 h before quenching the reactions with sodium dodecyl sulfate-containing electrophoresis sample buffer and heating the samples to 90° C. for 5 min. Overall breakdown of proteins were determined by Coomassie Blue staining of gels, whereas β-APP degradation was assessed by Western blotting of identical gels. β-APP was visualized as 110-130-kDa bands using antiserum 385 as described previously (Siman et al., (1989) Neuron 3, 275-285). β-APP-immunostained polypeptides on Western blots and the corresponding major Coomassie Blue-stained protein bands on sodium dodecyl sulfate-containing polyacrylamide gels were quantified by scanning laser densitometry.
We began looking for potential endogenous substrates of clipsin by incubating rat cortical membranes with Mg^2+ extract and measuring loss of the major protein bands following separation of the incubated samples by polyacrylamide gel electrophoresis. […] No other bands varied more than 25%, and no protease activity endogenous to cortical membranes could be detected when comparing 37° C. incubated membranes with parallel samples kept on ice.

β-APP = β-APP degradation in rat cortical membranes by Mg2+ extract, Western blot with antiserum 385; format: biochemical; details: inhibitor included in the incubation
Method: as §2

[6] = system: T4, COC(=O)CCC(=O)N[C@@H](C)C(=O)N[C@@H](C)C(=O)N1CCC[C@H]1C(=O)N[C@@H](CCSC)C(=O)Nc1ccc([N+](=O)[O-])cc1; assay: Hydrolysis kinetics of tetrapeptide p-nitroanilide substrates by chymotrypsin; format: biochemical, bovine; details: other: chymotrypsin, pH 7.5, 50° C., 10% dimethyl sulfoxide
T4 construct: mature chains cut from chymotrypsinogen A
Source text: as §1

[7] = system: T5, C[C@H](NC(=O)CCC(=O)O)C(=O)N[C@@H](C)C(=O)N1CCC[C@H]1C(=O)N[C@@H](Cc1ccccc1)C(=O)Nc1ccc([N+](=O)[O-])cc1; assay: as above; format: biochemical, bovine; details: other: chymotrypsin, pH 7.5, 50° C., 10% dimethyl sulfoxide
T5 construct: mature chains cut from chymotrypsinogen A
Source text: as §1

clipsin [8] = target: T1, clipsin; assay: Association rate constant for α-1-AChy binding to clipsin, second-order conditions; parameters: Mr 25,000 band in gelatin enzymography; details: equimolar clipsin and α-1-AChy
Method: The association rate constant for α-1-AChy binding to clipsin was determined under second-order conditions as described previously for α-1-AChy binding to other chymotrypsin-like proteases (Beatty et al., (1980) J. Biol. Chem. 255, 3931-3934). Using the titrated concentration of clipsin, an equimolar concentration of α-1-AChy was preincubated with Mg^2+ extract for various periods of time before addition of 2 mM substrate which stopped the reaction and was used to measure residual enzyme activity. The half-life time of reaction (t1/2) was calculated from a plot of .nu.^-1 versus t, and in turn used to calculate the association rate constant ^k assoc through the following: kassoc =1/t1/2 [Eγ], where [Eγ] stands for the total enzyme concentration (Beatty et al., (1980) J. Biol. Chem. 255, 3931-3934).
Using the titrated value for clipsin concentration in the Mg^2+ extract, we combined equimolar concentrations of clipsin and α-1-AChy to determine the association rate constant between these two proteins, as described previously (Equation 4 in Beatty et al., (1980) J. Biol. Chem. 255, 3931-3934). The ^k assoc was determined to be 2.9×10^6 M^-1 s^-1, a value falling between those determined previously for chymotrypsin and cathepsin G (Beatty et al., (1980) J. Biol. Chem. 255, 3931-3934).

bovine chymotrypsin [9] = target: T2, bovine chymotrypsin; details: cited from earlier work
human cathepsin G = details: cited from earlier work
clipsin [10] = target: T1, clipsin; assay: Titration of clipsin activity in Mg2+ extract with α-1-AChy in vitro; format: biochemical; parameters: Mr 25,000 band in gelatin enzymography; details: 20% Mg2+ extract
[11] = inhibitor 10 μM, 20% Mg2+ extract (1.4 nM clipsin), 2 mM Suc-Ala-Ala-Pro-Phe-p-nitroanilide, 1 h, 37° C., average of three

Molecule: c1cnc2c(c1)ccc1cccnc12 [1,10-0-phenanthroline]
- Inhibition of clipsin activity by class-specific protease inhibitors (in words) (clipsin [1]; enzymography, 1 mM EDTA present): Lack of complete inhibition

Molecule: CCN1C(=O)C=CC1=O [N-ethylmaleimide]
- Inhibition of clipsin activity by class-specific protease inhibitors (in words) (clipsin [1]): not inhibited

Molecule: COC(=O)CCC(=O)N[C@@H](C)C(=O)N[C@@H](C)C(=O)N1CCC[C@H]1C(=O)N[C@@H](CCSC)C(=O)Nc1ccc([N+](=O)[O-])cc1 [R'--Met-p-nitroanilide] (MeOSuc-AAPM-pNA)
- kcat /Km of chymotrypsin relative to clipsin (bovine chymotrypsin [2]): 8.5 fold
- kcat /Km [3]: 4,300 M^-1 S^-1
- Km [3]: 540 µM
- kcat [3]: 2.3 s⁻¹

Molecule: C[C@H](NC(=O)CCC(=O)O)C(=O)N[C@@H](C)C(=O)N1CCC[C@H]1C(=O)N[C@@H](Cc1ccccc1)C(=O)Nc1ccc([N+](=O)[O-])cc1 [R--Phe-p-nitroanilide, Suc-Ala-Ala-Pro-Phe-p-nitroanilide] (Suc-AAPF-pNA)
- kcat /Km of chymotrypsin relative to clipsin (bovine chymotrypsin [2]): 16 fold
- kcat /Km [3]: 4,800 M^-1 S^-1
- Km [3]: 3300 µM
- kcat [3]: 16 s⁻¹

Molecule: COC(=O)CCC(=O)N[C@@H](C)C(=O)N[C@@H](C)C(=O)N1CCC[C@H]1C(=O)N[C@@H](Cc1ccccc1)B(O)O [Sample 2, MeO-Suc-Ala-Ala-Pro-boro-Phe-OH]
- remaining activity at 10 µM (clipsin [4]; [11]): 8%
- Blocking of the clipsin-induced decrease of the protein doublet (in words) [5]: could be blocked
- Blocking of the clipsin-induced loss of β-APP immunoreactivity (in words) (β-APP): specifically blocked
- Inhibition of clipsin by peptide boronic acids (in words) (clipsin [1]; enzymography): preferentially inhibited

Molecule: COC(=O)CCC(=O)N[C@@H](C)C(=O)N[C@@H](C)C(=O)N1CCC[C@H]1C(=O)N[C@@H](C)B(O)O [Sample 3, MeO-Suc-Ala-Ala-Pro-boro-Ala-OH]
- remaining activity at 10 µM (clipsin [4]; [11]): 97%
- Inhibition of clipsin by peptide boronic acids (in words) (clipsin [1]; enzymography): lack of inhibition

Molecule: COC(=O)CCC(=O)N[C@@H](C)C(=O)N[C@@H](C)C(=O)N1CCC[C@H]1C(=O)N[C@H](B(O)O)C(C)C [Sample 4, MeO-Suc-Ala-Ala-Pro-boro-Val-OH]
- remaining activity at 10 µM (clipsin [4]; [11]): 94%
- Inhibition of clipsin by peptide boronic acids (in words) (clipsin [1]; enzymography): lack of inhibition

Molecule: O=C(O)CI [iodoacetic acid]
- Inhibition of clipsin activity by class-specific protease inhibitors (in words) (clipsin [1]): not inhibited

Molecule: O=S(=O)(F)Cc1ccccc1 [phenylmethylsulfonyl fluoride]
- Inhibition of clipsin activity by class-specific protease inhibitors (in words) (clipsin [1]): inhibited clipsin activity

Molecule: Bz-Pro-Phe-boro-Arg-OH [Sample 5]
- Relative Clipsin Activity (ΔOD as a percentage of the control value) (clipsin [4]; [11]): 84%
- Inhibition of clipsin by peptide boronic acids (in words) (clipsin [1]; enzymography): only marginally

Molecule: bovine chymotrypsin (Bos taurus)
- Km [6]: 1800 µM
- kcat [6]: 80 s⁻¹
- kcat/Km [6]: 44,000 M^-1 S^-1
- Km [7]: 130 µM
- kcat [7]: 120 s⁻¹
- kcat/Km [7]: 910,000 M^-1 S^-1

B1: α-1-antichymotrypsin (protein, UniProt P01011 24-423, looked up)
Alpha-1-antichymotrypsin: HPNSPLDEENLTQENQDRGTHVDLGLASANVDFAFSLYKQLVLKAPDKNVIFSPLSISTALAFLSLGAHNTTLTEILKGLKFNLTETSEAEIHQSFQHLLRTLNQSSDELQLSMGNAMFVKEQLSLLDRFTEDAKRLYGSEAFATDFQDSAAAKKLINDYVKNGTRGKITDLIKDLDSQTMMVLVNYIFFKAKWEMPFDPQDTHQSRFYLSKKKWVMVPMMSLHHLTIPYFRDEELSCTVVELKYTGNASALFILPDQDKMEEVEAMLLPETLKRWRDSLEFREIGELYLPKFSISRDYNLNDILLQLGIEEAFTSKADLSGITGARNLAVSQVVHKAVLDVFEEGTEASAATAVKITLLSALVETRTIVRFNRPFLMIIVPTDTQNIFFMSKVTNPKQA
- Inhibition of clipsin activity in vitro (in words) (clipsin [4]; pilot experiments, […]): effective inhibitor
- kassoc, association rate constant of α-1-AChy with clipsin (clipsin [8]): 2.9e+06 M⁻¹ s⁻¹
- kassoc reported for α-1-AChy binding to bovine chymotrypsin (bovine chymotrypsin [9]): 60000 M⁻¹ s⁻¹
- kassoc reported for α-1-AChy binding to human cathepsin G (human cathepsin G): 5.1e+07 M⁻¹ s⁻¹
- α-1-AChy concentration producing rapid inhibition of clipsin activity (clipsin [10]): ≥ 3.5 nM
- α-1-AChy necessary to inhibit 100% clipsin activity (titration point) (clipsin [10]; titration curve at 120 min preincubation): 1.4 nM
